Assays:
[1] = biological target: T1, Neutrophil elastase (Homo sapiens) (UniProt P08246); assay: Compound was tested for the inhibition of human leukocyte elastase (HLE) by ratio of Kobs to that of KI
T1 sequence (whole entry): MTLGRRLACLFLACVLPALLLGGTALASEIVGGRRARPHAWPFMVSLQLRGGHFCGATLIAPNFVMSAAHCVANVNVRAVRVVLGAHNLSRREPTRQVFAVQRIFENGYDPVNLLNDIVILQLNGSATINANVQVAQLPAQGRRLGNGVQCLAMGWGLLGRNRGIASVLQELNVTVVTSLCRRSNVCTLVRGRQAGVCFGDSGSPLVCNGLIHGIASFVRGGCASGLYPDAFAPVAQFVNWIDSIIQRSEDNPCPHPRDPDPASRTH

Neutrophil elastase = biological target: T2, Neutrophil elastase (Homo sapiens, UniProt P08246); assay: Compound was tested for the inhibition of human leukocyte elastase (HLE)
T2 sequence (P08246 whole entry): T1 sequence (whole entry)

[2] = biological target: T1, Neutrophil elastase (Homo sapiens); assay: Compound was tested for the inhibition of human leukocyte elastase (HLE) by ratio of Kobs to that of KI; Insoluble

K obs / 1 [1] [M⁻¹ s⁻¹]	SMILES	also measured
420	CC(C)C[C@H](NC(=O)OCc1ccccc1)C(=O)CN1C(=O)c2ccccc2S1(=O)=O	
160	CC(C)Cc1ccc(C(C)C(=O)CN2C(=O)c3ccccc3S2(=O)=O)cc1 (stereo not drawn)	

Further lines, the molecule ahead of its results:

SMILES	K obs / 1 [1] [M⁻¹ s⁻¹]	also measured
O=C(CN1C(=O)c2ccccc2S1(=O)=O)OCc1ccccc1	4	
CC(C)Cc1ccc(C(C)C(=O)CN2C(=O)CC(Cc3ccccc3)C2=O)cc1 (stereo not drawn)	45	
CC(C)C[C@H](N)C(=O)CN1C(=O)c2ccccc2C1=O		Ki (Neutrophil elastase): 17.5 µM
CC(C)C[C@H](NC(=O)OCc1ccccc1)C(=O)CN1C(=O)CC(Cc2ccccc2)C1=O (stereo partly drawn)	3	
CC(C)C[C@H](NC(=O)OCc1ccccc1)C(=O)CN1C(=O)c2ccccc2C1=O		K obs / 1 [2]: Insoluble
CC(C)Cc1ccc(C(C)C(=O)CN2C(=O)CC(CC(C)C)C2=O)cc1 (stereo not drawn)	16	
